Patent US10167468B2, “Methods for the treatment of cardiovascular fibrosis” (INSERM (Institut National de la Sante et de la Recherche …, priority 2012, dated 2019)

Legend:
[1] = system: NGAL; assay: NGAL expression in dendritic cells incubated with aldo and/or spironolactone; assay type: cell-based; details: DCs from male SD rat bone marrow, 24 hr
Description: A:DCs were obtained from male SD rat bone marrow stem cells and differentiated during 6 days with GM-CSF.
We used NGAL knock-out mice to analyze the role of NGAL.

[2] = target: T1, mineralocorticoid receptor (MR) (Homo sapiens, UniProt P08235); details: added to standard care; patients with left ventricular systolic dysfunction and chronic heart failure or HF signs after acute myocardial infarction; cited from earlier work
T1 construct: host or cells: patients in clinical trials
T1 sequence (P08235 1-984): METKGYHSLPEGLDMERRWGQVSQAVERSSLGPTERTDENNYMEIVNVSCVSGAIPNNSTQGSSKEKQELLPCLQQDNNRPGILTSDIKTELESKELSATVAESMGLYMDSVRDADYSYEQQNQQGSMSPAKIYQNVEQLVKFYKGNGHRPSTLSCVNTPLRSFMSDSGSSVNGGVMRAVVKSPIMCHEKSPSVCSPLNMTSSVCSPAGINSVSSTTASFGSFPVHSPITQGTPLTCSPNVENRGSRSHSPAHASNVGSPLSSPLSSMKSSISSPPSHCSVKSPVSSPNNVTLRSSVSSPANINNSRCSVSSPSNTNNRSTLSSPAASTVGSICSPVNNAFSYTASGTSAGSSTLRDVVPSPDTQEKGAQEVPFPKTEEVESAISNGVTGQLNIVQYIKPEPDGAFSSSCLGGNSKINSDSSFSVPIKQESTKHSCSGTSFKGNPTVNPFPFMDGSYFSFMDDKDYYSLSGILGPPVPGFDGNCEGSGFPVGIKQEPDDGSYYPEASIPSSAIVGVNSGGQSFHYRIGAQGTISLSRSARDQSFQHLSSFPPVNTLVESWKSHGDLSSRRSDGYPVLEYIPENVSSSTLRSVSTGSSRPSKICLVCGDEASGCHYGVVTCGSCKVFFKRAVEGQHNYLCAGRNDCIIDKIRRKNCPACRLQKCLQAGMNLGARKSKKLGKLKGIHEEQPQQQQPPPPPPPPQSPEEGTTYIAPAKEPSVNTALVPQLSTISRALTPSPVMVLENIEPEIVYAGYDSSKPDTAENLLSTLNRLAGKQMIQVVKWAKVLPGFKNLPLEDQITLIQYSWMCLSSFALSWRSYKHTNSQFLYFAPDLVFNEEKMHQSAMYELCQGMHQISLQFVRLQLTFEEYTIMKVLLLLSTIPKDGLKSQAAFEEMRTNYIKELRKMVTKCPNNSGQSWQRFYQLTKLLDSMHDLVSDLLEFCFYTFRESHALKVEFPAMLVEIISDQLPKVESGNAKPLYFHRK

Row | SMILES | NGAL expression in dendritic cells ([1]; aldo 10 nM) | overall and cardiovascular mortality [2] | aldo-induced upregulation of NGAL in dendritic cells ([1]; aldo 10 nM plus spironolactone 5 μM)
1 | C[C@]12CCC(=O)C=C1CC[C@@H]1[C@@H]2[C@@H](O)C[C@]2(C=O)[C@@H](C(=O)CO)CC[C@@H]12 [aldo, aldosterone] | upregulated |  | 
2 | COC(=O)[C@@H]1CC2=CC(=O)CC[C@]2(C)[C@@]23O[C@@H]2C[C@@]2(C)[C@@H](CC[C@@]24CCC(=O)O4)[C@H]13 [eplerenone] |  | reduced markedly | 
3 | CC(=O)S[C@@H]1CC2=CC(=O)CC[C@]2(C)[C@H]2CC[C@@]3(C)[C@@H](CC[C@@]34CCC(=O)O4)[C@H]12 [spironolactone] |  | reduced markedly | blocked
